Results reported in ChEMBL document CHEMBL1201862, “PubChem BioAssay data set” (2004).
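Each compound was tested at five concentrations against cells in 96-well plates for 48 hours. GI50: concentration for 50% inhibition of growth.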 Calls of active or inactive are those of the source. Cut-off read from the data, not from the text of the source: active = GI50 up to about 1.1 µM and inactive = higher.

How the values were obtained:
Assay in all cases: growth of human tumour cells (NCI), 48 h
BT-549 = system: BT-549
SF-295 = system: SF-295
SK-MEL-2 = system: SK-MEL-2
786-0 = system: 786-0
NCI/ADR-RES = system: NCI/ADR-RES
SN12C = system: SN12C
HOP-62 = system: HOP-62
OVCAR-3 = system: OVCAR-3
OVCAR-4 = system: OVCAR-4
SNB-19 = system: SNB-19
OVCAR-5 = system: OVCAR-5
A498 = system: A498
HCT-116 = system: HCT-116
U-251 = system: U-251
A549 = system: A549
MDA-MB-231 = system: MDA-MB-231
EKVX = system: EKVX
Malme-3M = system: Malme-3M
RPMI-8226 = system: RPMI-8226
PC-3 = system: PC-3
K562 = system: K562
M14 = system: M14
ACHN = system: ACHN
HOP-92 = system: HOP-92
Hs-578T = system: Hs-578T
RXF 393 = system: RXF 393
MDA-MB-435 = system: MDA-MB-435
NCI-H226 = system: NCI-H226
SF-539 = system: SF-539
SNB-75 = system: SNB-75
HCT-15 = system: HCT-15
CCRF-CEM = system: CCRF-CEM
MDA-N = system: MDA-N
CAKI-1 = system: CAKI-1
IGROV-1 = system: IGROV-1
NCI-H23 = system: NCI-H23
UACC-257 = system: UACC-257
SK-MEL-28 = system: SK-MEL-28
SF-268 = system: SF-268
OVCAR-8 = system: OVCAR-8
MCF7 = system: MCF7
TK-10 = system: TK-10
HCC 2998 = system: HCC 2998
KM12 = system: KM12
HT-29 = system: HT-29
NCI-H460 = system: NCI-H460
T47D = system: T47D
HL-60 = system: HL-60
LOX IMVI = system: LOX IMVI
DU-145 = system: DU-145
MOLT-4 = system: MOLT-4
COLO 205 = system: COLO 205
SK-MEL-5 = system: SK-MEL-5
UO-31 = system: UO-31
SK-OV-3 = system: SK-OV-3
SW-620 = system: SW-620
UACC-62 = system: UACC-62
NCI-H522 = system: NCI-H522

SMILES: Cc1cc2oc(=N)c(C#N)c(C)c2cc1C
- GI50 (BT-549): 39.4 µM (inactive)
- GI50 (SF-295): 44.6 µM (inactive)
- GI50 (SK-MEL-2): 51.8 µM (inactive)
- GI50 (786-0): 96.4 µM (inactive)
- GI50 (NCI/ADR-RES): 55.1 µM (inactive)
- GI50 (SN12C): 96.2 µM (inactive)
- GI50 (HOP-62): 52 µM (inactive)
- GI50 (OVCAR-3): 70.1 µM (inactive)
- GI50 (OVCAR-4): 56.2 µM (inactive)
- GI50 (SNB-19): 83.2 µM (inactive)
- GI50 (OVCAR-5): > 100 µM (inactive)
- GI50 (A498): > 100 µM (inactive)
- GI50 (HCT-116): 53.1 µM (inactive)
- GI50 (U-251): 65.6 µM (inactive)
- GI50 (A549): 48.8 µM (inactive)
- GI50 (MDA-MB-231): > 100 µM (inactive)
- GI50 (EKVX): 30.3 µM (inactive)
- GI50 (Malme-3M): 43 µM (inactive)
- GI50 (RPMI-8226): 42.7 µM (inactive)
- GI50 (PC-3): 36.9 µM (inactive)
- GI50 (K562): 24.5 µM (inactive)
- GI50 (M14): 67.6 µM (inactive)
- GI50 (ACHN): 38.5 µM (inactive)
- GI50 (HOP-92): 44.2 µM (inactive)
- GI50 (Hs-578T): 26.3 µM (inactive)
- GI50 (RXF 393): 24.3 µM (inactive)
- GI50 (MDA-MB-435): 51.5 µM (inactive)
- GI50 (NCI-H226): 87.7 µM (inactive)
- GI50 (SF-539): 62.8 µM (inactive)
- GI50 (SNB-75): 19.1 µM (inactive)
- GI50 (HCT-15): 42.3 µM
- GI50 (CCRF-CEM): 36.6 µM (inactive)
- GI50 (MDA-N): 96.8 µM (inactive)
- GI50 (CAKI-1): 57.8 µM (inactive)
- GI50 (IGROV-1): 26.5 µM (inactive)
- GI50 (NCI-H23): 31.3 µM (inactive)
- GI50 (UACC-257): > 100 µM (inactive)
- GI50 (SK-MEL-28): > 100 µM (inactive)
- GI50 (SF-268): 44 µM (inactive)
- GI50 (OVCAR-8): 72.3 µM (inactive)
- GI50 (MCF7): 31.9 µM (inactive)
- GI50 (TK-10): 67.3 µM (inactive)
- GI50 (HCC 2998): 52.5 µM (inactive)
- GI50 (KM12): 39.9 µM (inactive)
- GI50 (HT-29): 63 µM (inactive)
- GI50 (NCI-H460): 46.7 µM (inactive)
- GI50 (T47D): 40.6 µM (inactive)
- GI50 (HL-60): 33.4 µM (inactive)
- GI50 (LOX IMVI): 90.2 µM (inactive)
- GI50 (DU-145): 84.7 µM (inactive)
- GI50 (MOLT-4): 2.5 µM (inactive)
- GI50 (COLO 205): 48.1 µM (inactive)
- GI50 (SK-MEL-5): 30.7 µM (inactive)
- GI50 (UO-31): 45.1 µM (inactive)
- GI50 (SK-OV-3): 35.2 µM (inactive)
- GI50 (SW-620): 67.6 µM (inactive)
- GI50 (UACC-62): 47.4 µM (inactive)

SMILES: COC(=O)[C@H](Cc1ccccc1)NC(=O)N(CCC#N)CCN(C(=O)N[C@@H](Cc1ccccc1)C(=O)OC)c1ccccc1
- GI50 (BT-549): 49.3 µM (inactive)
- GI50 (SF-295): 33.8 µM (inactive)
- GI50 (SK-MEL-2): 18.5 µM (inactive)
- GI50 (786-0): 9.2 µM (inactive)
- GI50 (NCI/ADR-RES): > 100 µM (inactive)
- GI50 (SN12C): 32.2 µM (inactive)
- GI50 (HOP-62): 41.1 µM (inactive)
- GI50 (OVCAR-3): 19.9 µM (inactive)
- GI50 (OVCAR-4): 23.6 µM (inactive)
- GI50 (SNB-19): 49.5 µM (inactive)
- GI50 (OVCAR-5): > 100 µM (inactive)
- GI50 (A498): 23 µM (inactive)
- GI50 (HCT-116): 28.1 µM (inactive)
- GI50 (U-251): > 10 µM (inactive)
- GI50 (A549): 47.1 µM (inactive)
- GI50 (MDA-MB-231): 26.7 µM (inactive)
- GI50 (EKVX): 29.5 µM (inactive)
- GI50 (RPMI-8226): 21 µM (inactive)
- GI50 (PC-3): 32.1 µM (inactive)
- GI50 (M14): 24.9 µM (inactive)
- GI50 (ACHN): 18.9 µM (inactive)
- GI50 (HOP-92): 18.7 µM (inactive)
- GI50 (Hs-578T): 32.7 µM (inactive)
- GI50 (RXF 393): 18.2 µM (inactive)
- GI50 (MDA-MB-435): 18.9 µM (inactive)
- GI50 (NCI-H226): 30 µM (inactive)
- GI50 (SF-539): 20.8 µM (inactive)
- GI50 (SNB-75): 17.5 µM (inactive)
- GI50 (HCT-15): 38.5 µM
- GI50 (CCRF-CEM): 27.2 µM (inactive)
- GI50 (MDA-N): 17.5 µM (inactive)
- GI50 (CAKI-1): 20 µM (inactive)
- GI50 (IGROV-1): 20.8 µM (inactive)
- GI50 (NCI-H23): 32.7 µM (inactive)
- GI50 (UACC-257): 20 µM (inactive)
- GI50 (SK-MEL-28): 18.2 µM (inactive)
- GI50 (SF-268): 22.8 µM (inactive)
- GI50 (OVCAR-8): 37.8 µM (inactive)
- GI50 (MCF7): 38.5 µM (inactive)
- GI50 (TK-10): 20 µM (inactive)
- GI50 (HCC 2998): 28.2 µM (inactive)
- GI50 (KM12): 37.3 µM (inactive)
- GI50 (T47D): 20.2 µM (inactive)
- GI50 (LOX IMVI): 22.5 µM (inactive)
- GI50 (DU-145): 29.1 µM (inactive)
- GI50 (MOLT-4): 16.6 µM (inactive)
- GI50 (COLO 205): 25 µM (inactive)
- GI50 (SK-MEL-5): 22.9 µM (inactive)
- GI50 (UO-31): 17.6 µM (inactive)
- GI50 (SK-OV-3): 46.8 µM (inactive)
- GI50 (SW-620): 35.1 µM (inactive)
- GI50 (UACC-62): 3.34 µM (inactive)

SMILES: CC(C)(C)OC(=O)N1CCC[C@H]1CSC[C@@H]1CCCN1C(=O)OC(C)(C)C
- GI50 (BT-549): 23.8 µM (inactive)
- GI50 (SF-295): 30.8 µM (inactive)
- GI50 (SK-MEL-2): 18.3 µM (inactive)
- GI50 (786-0): 38.8 µM (inactive)
- GI50 (NCI/ADR-RES): 18.7 µM (inactive)
- GI50 (SN12C): 32.2 µM (inactive)
- GI50 (HOP-62): 41.5 µM (inactive)
- GI50 (OVCAR-3): 22.4 µM (inactive)
- GI50 (OVCAR-4): 28.7 µM (inactive)
- GI50 (SNB-19): 25.4 µM (inactive)
- GI50 (OVCAR-5): 34.2 µM (inactive)
- GI50 (HCT-116): 25.6 µM (inactive)
- GI50 (U-251): 29.7 µM (inactive)
- GI50 (A549): 24.4 µM (inactive)
- GI50 (MDA-MB-231): 31.5 µM (inactive)
- GI50 (EKVX): 32.8 µM (inactive)
- GI50 (Malme-3M): 25.6 µM (inactive)
- GI50 (PC-3): 26.9 µM (inactive)
- GI50 (K562): 24.5 µM (inactive)
- GI50 (M14): 18.6 µM (inactive)
- GI50 (ACHN): 32.2 µM (inactive)
- GI50 (HOP-92): 8.43 µM (inactive)
- GI50 (Hs-578T): 27 µM (inactive)
- GI50 (RXF 393): 24.8 µM (inactive)
- GI50 (MDA-MB-435): 20.7 µM (inactive)
- GI50 (SNB-75): 23.9 µM (inactive)
- GI50 (HCT-15): 27.9 µM
- GI50 (CCRF-CEM): 24.2 µM (inactive)
- GI50 (MDA-N): 29.4 µM (inactive)
- GI50 (CAKI-1): 32.4 µM (inactive)
- GI50 (IGROV-1): 43.4 µM (inactive)
- GI50 (NCI-H23): 20.7 µM (inactive)
- GI50 (UACC-257): 28.8 µM (inactive)
- GI50 (SK-MEL-28): 24.6 µM (inactive)
- GI50 (SF-268): 39.4 µM (inactive)
- GI50 (OVCAR-8): 29.3 µM (inactive)
- GI50 (MCF7): 28.6 µM (inactive)
- GI50 (TK-10): 56.9 µM (inactive)
- GI50 (HCC 2998): 39.8 µM (inactive)
- GI50 (KM12): 20.9 µM (inactive)
- GI50 (HT-29): 17.8 µM (inactive)
- GI50 (NCI-H460): 34.3 µM (inactive)
- GI50 (T47D): 20.6 µM (inactive)
- GI50 (LOX IMVI): 17.6 µM (inactive)
- GI50 (DU-145): 44 µM (inactive)
- GI50 (MOLT-4): 16.7 µM (inactive)
- GI50 (COLO 205): 16.8 µM (inactive)
- GI50 (SK-MEL-5): 18.7 µM (inactive)
- GI50 (UO-31): 26.2 µM (inactive)
- GI50 (SK-OV-3): 69.5 µM (inactive)
- GI50 (NCI-H522): 24 µM (inactive)
- GI50 (SW-620): 30.3 µM (inactive)
- GI50 (UACC-62): 21.7 µM (inactive)
